Test system: BV2-CD33^WT cells
Test: Aβ42 uptake in microglial BV2-CD33^WT cells (Aβ42-specific ELISA of cell lysates)
Type: cell-based
Conditions: 100 μM; BV2-CD33 activated microglial cells; 3 hours pre-treatment, then 2 hours with Aβ42 peptide; vs DMSO control; FIG. 2
Procedure: FIG. 2 is a plot showing Aβ42 uptake in microglial BV2-CD33^WT cells treated with DMSO as control or cromolyn derivatives (C1, C3-8) at different concentrations for 3 hours. Afterwards, cells were incubated with DMSO or cromolyn derivatives in the presence of the Aβ42 peptide for additional 2 hours. Cell lysates were analyzed for intracellular levels of Aβ42 using an Aβ42-specific ELISA kit.

## CC(=O)OCc1cc(=O)c2c(OCC(COc3cccc4oc(COC(C)=O)cc(=O)c34)OC(C)=O)cccc2o1 [Compound C7, Ac-Triol- Cromolyn]
  microglial uptake of Aβ42: positive impact

— patent US12612391B2, “Cromolyn derivatives and uses thereof” (The General Hospital Corporation, priority 2020, dated 2026)
